# What was measured:
# Assay type in all cases: physicochemical
# [1] = Apparent pKa of LNP formulations, TNS fluorescence assay; conditions: LNP cationic lipid/DSPC/cholesterol/DMG-PEG 50/10/38.5/1.5 mol %, pH 3 to 9
# Procedure, shortened: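 LNPs (cationic lipid/DSPC/cholesterol/DMG-PEG 50/10/38.5/1.5 mol %) at 0.1 mg/ml total lipid in citrate/phosphate/borate buffers, pH 3–9, with TNS added; fluorescence read at room temperature (ex 325, em 435 nm). Apparent pKa is the pH giving half-maximal fluorescence from a sigmoidal fit.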
# [2] = Lipid nanoparticle size and polydispersity by dynamic light scattering (Malvern Zetasizer Nano ZS); conditions: LNP of cationic lipid/DSPC/cholesterol/PEG-lipid 50:10:38.5:1.5 with mRNA
# Procedure, shortened: (§1)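 Lipids 50:10:38.5:1.5 (cationic:DSPC:chol:PEG) in EtOH + mRNA in citrate pH 4, 1:3 vol, microfluidic, 9–30 mL/min; total lipid:mRNA ~10:1–30:1 w/w. Dialysis to DPBS, 0.2 μm filter. DLS 173° backscatter; Ribogreen encapsulation.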
# [3] = Encapsulation efficiency of lipid nanoparticles, Quant-it Ribogreen RNA quantification assay; conditions: LNP with mRNA
# Procedure, shortened: as §1
Apparant Pka [1],polydispersity [2],size (nm) [2] [nm],Encapsulation Efficiency [3] [%],Compound
6.985,0.068,73.31,92.6,CCCCCCCCC(CCCCCCCC)CC(=O)OCC(CCCCN(CCO)C1CCC1)COC(=O)CCCCC (stereo not shown) [Compound 60]
3.519,0.232,59.1,44.6,CCCCCCCCC(CCCCCC)CC(=O)OCC(CN(CCO)C1CCC1)OC(=O)CC(CCCCCC)CCCCCCCC (stereo not shown) [Compound 32]
6.79,0.023,72.78,88.28,CCCCCCCCCCC(=O)OCC(CCCCN(CCO)C1CCC1)COC(=O)CC(CCCCCC)CCCCCCCC (stereo not shown) [Compound 81]

Compound,Apparant Pka [1],polydispersity [2],size (nm) [2] [nm],Encapsulation Efficiency [3] [%]
CCCCCCCCCCCCOCC(CN(CCCCCC(=O)OCC(CCCCCC)CCCCCCCC)CCN(CCO)C1CCCCCC1)OCCCCCC (stereo not shown) [Compound 26],5.696,0.153,55.8,93.30

# Source: patent US11964052B2, “Lipid compounds and lipid nanoparticle compositions” (SUZHOU ABOGEN BIOSCIENCES CO., LTD., priority 2021, dated 2024)
